The values that follow come from patent US6534516B1, “Androgen receptor modulator compounds and methods” (Ligand Pharmaceuticals Incorporated, priority 1996, dated 2003).

Test [1] concerns the target T1, human AR (Homo sapiens, UniProt P10275).
T1 construct: expressed in transfected cells; host or cells: CV-1 cells (African green monkey kidney fibroblasts)
T1 sequence (P10275 1-920): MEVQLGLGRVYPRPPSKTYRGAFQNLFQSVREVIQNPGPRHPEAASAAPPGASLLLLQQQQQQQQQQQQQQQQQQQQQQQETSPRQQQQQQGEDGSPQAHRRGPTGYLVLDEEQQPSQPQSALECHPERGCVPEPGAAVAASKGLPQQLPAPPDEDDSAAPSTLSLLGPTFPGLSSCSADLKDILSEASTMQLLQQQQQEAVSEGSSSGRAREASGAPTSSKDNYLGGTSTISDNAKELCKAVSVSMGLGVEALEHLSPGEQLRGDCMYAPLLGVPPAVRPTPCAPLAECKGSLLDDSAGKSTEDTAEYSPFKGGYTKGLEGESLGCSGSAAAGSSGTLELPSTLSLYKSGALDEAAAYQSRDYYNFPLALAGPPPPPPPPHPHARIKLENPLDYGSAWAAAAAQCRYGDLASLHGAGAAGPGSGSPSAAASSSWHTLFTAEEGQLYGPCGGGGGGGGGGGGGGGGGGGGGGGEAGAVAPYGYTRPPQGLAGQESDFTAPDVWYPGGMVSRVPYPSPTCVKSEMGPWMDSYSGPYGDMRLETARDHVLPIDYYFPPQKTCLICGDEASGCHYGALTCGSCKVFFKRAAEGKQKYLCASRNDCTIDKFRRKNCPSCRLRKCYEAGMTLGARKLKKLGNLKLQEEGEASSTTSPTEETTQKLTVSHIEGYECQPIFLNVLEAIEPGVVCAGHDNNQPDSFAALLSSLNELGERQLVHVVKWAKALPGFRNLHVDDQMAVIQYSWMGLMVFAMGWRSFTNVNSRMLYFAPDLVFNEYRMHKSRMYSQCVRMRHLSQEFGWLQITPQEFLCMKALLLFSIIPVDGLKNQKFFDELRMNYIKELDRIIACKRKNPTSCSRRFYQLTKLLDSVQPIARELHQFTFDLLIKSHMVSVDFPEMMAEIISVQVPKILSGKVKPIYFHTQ
Briefly: cell-based. In kind it is cell-based. The following applies: for AR Antagonist CV-1 Cells Efficacy: antagonist mode, DHT at its EC50, % of maximal inhibition, na = not active; for IC50: read-out: AR Antagonist CV-1 Cells Potency. From the text: The co-transfection assay provides a method for identifying functional agonists and partial agonists which mimic, or antagonists which inhibit, the effect of native hormones, and quantifying their activity for responsive IR proteins. In this regard, the co-transfection assay mimics an in vivo system in the laboratory. Importantly, activity in the co-transfection assay correlates very well with known in vivo activity, such that the co-transfection assay functions as a qualitative and quantitative predictor of a tested compounds in vivo pharmacology. See, e.g., T. Berger et al. 41 J. Steroid Biochem. Molec.
CV-1 cells (African green monkey kidney fibroblasts) were cultured in the presence of Dulbecco's Modified Eagle Medium (DMEM) supplemented with 10% charcoal resin-stripped fetal bovine serum then transferred to 96-well microtiter plates one day prior to transfection.
The reporter plasmid, MTV-LUC, contains the cDNA for firefly luciferase (LUC) under control of the mouse mammary tumor virus (MTV) long terminal repeat, a conditional promoter containing an androgen response element. See e.g., Berger et al. supra. In addition, pRS-β-Gal, coding for constitutive expression of E. coli β-galactosidase (β-Gal), was included as an internal control for evaluation of transfection efficiency and compound toxicity.
Three to four replicates were used for each sample.
After 40 hours, the cells were washed with PBS, lysed with a Triton X-100-based buffer and assayed for LUC and β-Gal activities using a luminometer or spectrophotometer, respectively. For each replicate, the normalized response (NR) was calculated as:
where β-Gal rate=β-Gal•1×10^−5/β-Gal incubation time.

In test [2] the target is T1, human AR. Briefly: cell-based. The settings on record: read-out: AR Binding Ki.
A further test has as its target T2, PR (Homo sapiens, UniProt P06401).
T2 sequence (P06401 1-933): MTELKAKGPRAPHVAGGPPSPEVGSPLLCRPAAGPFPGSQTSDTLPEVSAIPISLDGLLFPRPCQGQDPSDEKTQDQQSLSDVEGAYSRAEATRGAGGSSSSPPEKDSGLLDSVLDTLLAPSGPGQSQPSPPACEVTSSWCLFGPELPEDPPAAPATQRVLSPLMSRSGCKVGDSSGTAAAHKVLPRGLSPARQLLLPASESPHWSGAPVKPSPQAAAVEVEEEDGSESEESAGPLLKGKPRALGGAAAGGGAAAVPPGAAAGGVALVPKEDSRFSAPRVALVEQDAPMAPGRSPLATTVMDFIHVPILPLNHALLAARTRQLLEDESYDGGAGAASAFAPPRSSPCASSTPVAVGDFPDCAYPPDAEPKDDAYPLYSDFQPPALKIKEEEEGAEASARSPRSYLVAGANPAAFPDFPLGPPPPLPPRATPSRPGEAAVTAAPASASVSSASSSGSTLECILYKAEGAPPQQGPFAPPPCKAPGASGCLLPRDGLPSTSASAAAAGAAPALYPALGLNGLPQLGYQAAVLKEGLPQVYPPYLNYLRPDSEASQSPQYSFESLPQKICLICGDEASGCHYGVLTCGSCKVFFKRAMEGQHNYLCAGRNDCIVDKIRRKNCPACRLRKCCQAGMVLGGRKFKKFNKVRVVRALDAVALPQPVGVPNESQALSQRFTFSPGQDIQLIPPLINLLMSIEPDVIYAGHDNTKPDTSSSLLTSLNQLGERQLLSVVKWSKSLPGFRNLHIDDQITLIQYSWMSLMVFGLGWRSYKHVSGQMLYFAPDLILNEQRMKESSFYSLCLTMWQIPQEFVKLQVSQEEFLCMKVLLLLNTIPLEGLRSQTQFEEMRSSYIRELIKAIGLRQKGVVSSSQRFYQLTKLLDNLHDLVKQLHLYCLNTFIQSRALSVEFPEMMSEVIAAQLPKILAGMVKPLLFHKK
Briefly: cell-based.

Another test concerns the target T3, MR (Homo sapiens, UniProt P08235).
T3 construct: expressed in transfected cells
T3 sequence (P08235 1-984): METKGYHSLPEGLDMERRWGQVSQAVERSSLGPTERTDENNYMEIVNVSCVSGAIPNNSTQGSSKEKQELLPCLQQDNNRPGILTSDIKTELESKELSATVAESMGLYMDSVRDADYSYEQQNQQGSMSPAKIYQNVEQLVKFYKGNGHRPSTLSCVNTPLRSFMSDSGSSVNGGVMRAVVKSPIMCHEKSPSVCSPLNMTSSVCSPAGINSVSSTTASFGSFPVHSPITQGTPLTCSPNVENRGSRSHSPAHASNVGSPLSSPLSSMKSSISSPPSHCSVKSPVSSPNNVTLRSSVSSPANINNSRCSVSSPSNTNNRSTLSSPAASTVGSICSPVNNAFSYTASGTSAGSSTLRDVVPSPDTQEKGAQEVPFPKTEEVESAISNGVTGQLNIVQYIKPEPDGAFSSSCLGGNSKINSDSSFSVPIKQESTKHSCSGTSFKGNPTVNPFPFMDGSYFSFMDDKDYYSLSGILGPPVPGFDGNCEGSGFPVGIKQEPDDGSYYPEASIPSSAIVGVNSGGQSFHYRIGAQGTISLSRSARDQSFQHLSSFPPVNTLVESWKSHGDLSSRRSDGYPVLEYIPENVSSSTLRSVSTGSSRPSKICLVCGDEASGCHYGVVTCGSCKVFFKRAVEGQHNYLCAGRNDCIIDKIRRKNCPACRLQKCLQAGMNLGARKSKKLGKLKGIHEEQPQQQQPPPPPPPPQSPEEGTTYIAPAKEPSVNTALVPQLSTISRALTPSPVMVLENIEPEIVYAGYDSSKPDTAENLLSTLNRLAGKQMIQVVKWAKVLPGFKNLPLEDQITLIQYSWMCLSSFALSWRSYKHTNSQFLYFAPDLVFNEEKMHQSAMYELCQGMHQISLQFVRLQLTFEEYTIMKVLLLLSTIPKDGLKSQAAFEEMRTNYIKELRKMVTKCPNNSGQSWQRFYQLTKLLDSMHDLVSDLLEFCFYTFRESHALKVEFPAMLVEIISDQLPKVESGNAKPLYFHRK
Kind of test: Co-transfection assay, cross-reactivity on MR. In kind it is cell-based.

A word on the Ki: it is a dissociation constant, usually derived from enzyme kinetics or from competition with a known ligand. In the case of `CC12CCCN1c1cc3[nH]c(=O)c(F)c(C(F)(F)F)c3cc1CC2` (racemic) [Compound 102, (R/S)-3-Fluoro-6,7,7a,11-tetrahydro-7a-methyl-4-trifluoromethyl-2-pyridono[5,6-g]pyrrolidino[1,2-a]quinoline], on human AR [1], the “AR Antagonist CV-1 Cells Efficacy” value is on record as 85 ± 1% and the IC50 turned out to be 193 ± 19 nM. In addition, the Ki on human AR [2] came out at 11 nM. On PR, this molecule returned an IC50 of 398 nM.
In the same order, the values of `Cn1c(=O)c(F)c(C(F)(F)F)c2cc3c(cc21)N1CCCC1(C)CC3` (racemic) [Compound 104, (R/S)-3-Fluoro-6,7,7a,11-tetrahydro-1,7a-dimethyl-4-trifluoromethyl-2-pyridono[5,6-g]pyrrolidino[1,2-a]quinoline] are 85 ± 2%, 40 ± 9 nM, 93 ± 48 nM and 800 nM.
Turning to `Cn1c(=O)cc(C(F)(F)F)c2cc3c(cc21)N1CCCC1(C)CC3` (racemic) [Compound 103, (R/S)-6,7,7a,11-Tetrahydro-1,7a-dimethyl-4-trifluoromethyl-2-pyridono[5,6-g]pyrrolidino[1,2-a]quinoline], the IC50 against MR is 1590 nM; against PR, 5940 nM.
